# Source: paper PMC6803055 (Journal of pharmacological and toxicological methods, 2019)
# Like-named read-outs stand apart in the source and are kept apart here.
# Tests used:
# PDE5 = PDE5 (Homo sapiens, UniProt O76074); assay: in vitro enzyme assay; type: biochemical; conditions: 100 μM (36 μg/mL) DSM421
# [1] = estimated plasma maximum concentrations in dogs; type: in vivo, dog
# Male Sprague Dawley rats [2] = conditions: rat, in vivo, po
# PDE6 = assay: in vitro enzyme assay; type: biochemical; conditions: 100 μM (36 μg/mL) DSM421
# rats [3] = assay: original GLP respiratory study using head-out plethysmography; type: in vivo, rat; conditions: original head-out study, 200, 500, 750 mg/kg p.o.
# pharmacokinetics in rats = type: in vivo; conditions: rat; for plasma Cmax (mean ± S.E.M.) / Tmax (mean ± S.E.M.): n=4
# dogs = assay: cardiovascular and respiratory assessment in telemetry-instrumented dogs; type: in vivo, dog
# adenosine A3 receptor = molecular target: T1, adenosine A3 receptor (Homo sapiens, UniProt P0DMS8); assay: in vitro binding assay
# T1 sequence (P0DMS8 1-318): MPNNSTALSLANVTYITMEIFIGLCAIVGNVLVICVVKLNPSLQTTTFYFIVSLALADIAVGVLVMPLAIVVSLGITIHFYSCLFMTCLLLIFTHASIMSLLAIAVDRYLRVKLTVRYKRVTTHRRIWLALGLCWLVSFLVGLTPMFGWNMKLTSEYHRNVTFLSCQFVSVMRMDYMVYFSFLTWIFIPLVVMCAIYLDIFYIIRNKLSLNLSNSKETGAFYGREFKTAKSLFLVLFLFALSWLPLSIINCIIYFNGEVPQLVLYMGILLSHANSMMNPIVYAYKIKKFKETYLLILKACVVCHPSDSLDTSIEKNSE
# [4] = molecular target: transient receptor potential cation channel subfamily V member 1 (TRPV1) (Homo sapiens, UniProt Q8NER1); assay: in vitro functional assays for agonist and antagonist effects; type: biochemical
# Male Sprague Dawley rats [5] = assay: stress-related hormones after plethysmography testing; type: in vivo, rat; conditions: approximately 5 hours post-dosing, 200, 500, 750 mg/kg p.o., whole-body and head-out testing
# rats [6] = assay: Irwin test; type: in vivo, rat; conditions: oral doses of 200, 500 and 750 mg/kg
# Male Sprague Dawley rats [7] = assay: respiratory function, whole-body plethysmography; type: in vivo, rat; conditions: for increase in tidal volume: throughout 5 hours post-dosing, not significant
# [8] = whole-body, 200 and 500 mg/kg p.o., peak at 5 hours post-dosing
# Sequence of transient receptor potential cation channel subfamily V member 1 (TRPV1) (Q8NER1 whole entry, species assumed): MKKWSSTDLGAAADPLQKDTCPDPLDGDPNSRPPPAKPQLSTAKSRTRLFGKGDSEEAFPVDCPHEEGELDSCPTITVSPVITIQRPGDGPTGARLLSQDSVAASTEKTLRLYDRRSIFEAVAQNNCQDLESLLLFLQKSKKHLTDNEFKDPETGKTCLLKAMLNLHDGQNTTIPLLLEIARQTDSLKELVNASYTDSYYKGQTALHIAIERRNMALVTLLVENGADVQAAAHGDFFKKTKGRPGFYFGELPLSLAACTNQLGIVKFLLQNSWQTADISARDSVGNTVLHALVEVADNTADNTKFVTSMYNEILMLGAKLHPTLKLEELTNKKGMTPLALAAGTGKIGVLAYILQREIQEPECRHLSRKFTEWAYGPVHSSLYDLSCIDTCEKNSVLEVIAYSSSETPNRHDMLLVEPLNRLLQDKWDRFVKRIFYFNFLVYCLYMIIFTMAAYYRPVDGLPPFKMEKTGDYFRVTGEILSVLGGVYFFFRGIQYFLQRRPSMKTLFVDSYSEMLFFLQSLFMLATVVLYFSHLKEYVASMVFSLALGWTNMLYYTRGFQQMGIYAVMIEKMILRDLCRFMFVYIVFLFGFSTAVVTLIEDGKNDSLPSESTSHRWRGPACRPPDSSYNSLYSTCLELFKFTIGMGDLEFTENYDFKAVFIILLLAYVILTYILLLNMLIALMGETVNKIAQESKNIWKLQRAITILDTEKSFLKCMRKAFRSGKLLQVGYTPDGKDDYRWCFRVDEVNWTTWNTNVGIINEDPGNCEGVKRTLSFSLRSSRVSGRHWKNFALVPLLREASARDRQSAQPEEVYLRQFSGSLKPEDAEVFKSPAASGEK
structure (smiles),measurement,setting,value
"Cc1cc(Nc2ccc(C(F)(F)F)nc2)n2nc(C(C)(F)F)nc2n1 [DSM421, 2-(1,1-difluoroethyl)-5-methyl-N-[6-trifluromethyl-3-pyridyl]-[1,2,4]triazolo[1,5-a]pyrimidin-7-amine]",inhibition,PDE5,59%
same,estimated maximum concentration (Cmax) in plasma,[1]; 30 mg/kg p.o.,29 µg/mL
same,estimated maximum concentration (Cmax) in plasma,[1]; 100 mg/kg p.o.,69 µg/mL
same,changes in respiratory rate,Male Sprague Dawley rats [2]; 200 mg/kg,no changes in respiratory rate
same,clinical signs,Male Sprague Dawley rats [2]; 200 mg/kg,no DSM421-related clinical signs
same,mean minute volume increase above the control group,Male Sprague Dawley rats [2]; 200 mg/kg,approximately 17%
same,"animals with hypoactivity, salivation, dyspnea and/or increased body temperature",Male Sprague Dawley rats [2]; 500 mg/kg,2 of the eight animals tested
same,increase in respiratory rate above controls,Male Sprague Dawley rats [2]; 500 mg/kg,5–17%
same,mean minute volume increase above the control group,Male Sprague Dawley rats [2]; 500 mg/kg,~48%
same,increase in respiratory rate above controls (peak),Male Sprague Dawley rats [2]; 750 mg/kg,41–47%
same,increase in tidal volume above controls (peak),Male Sprague Dawley rats [2]; 750 mg/kg,46–57%
same,mean minute volume increase above controls (peak),Male Sprague Dawley rats [2]; 750 mg/kg,141%
same,inhibition,PDE6,72%
same,time after administration of death or euthanasia in extremis,rats [3],3 to 5 h
same,plasma Cmax (mean ± S.E.M.),pharmacokinetics in rats; 200 mg/kg p.o.,49 µg/mL
same,Tmax (mean ± S.E.M.),pharmacokinetics in rats; 500 mg/kg p.o.,18 ± 3.5 h
same,plasma Cmax (mean ± S.E.M.),pharmacokinetics in rats; 500 mg/kg p.o.,73 µg/mL
same,plasma level by 6 days after dosing relative to LLOQ (0.005 μg/mL),pharmacokinetics in rats; 750 mg/kg p.o. (high dose),only slightly greater than that
same,Tmax (mean ± S.E.M.),pharmacokinetics in rats; 750 mg/kg p.o.,27 ± 7.5 h
same,plasma Cmax (mean ± S.E.M.),pharmacokinetics in rats; 750 mg/kg p.o.,97 µg/mL
same,clinical observation,dogs; 100 mg/kg p.o.,emesis
same,increase in minute volume,dogs; 100 mg/kg p.o.,4- to 5 fold
same,increase in respiratory rate,dogs; 100 mg/kg p.o.,4- to 5 fold
same,"cardiovascular function (heart rate, blood pressure, and ECG)",dogs; 30 and 100 mg/kg p.o.,no effects
same,tidal volume,dogs; 30 and 100 mg/kg p.o.,no effects
same,no-observed-effect level (NOEL),dogs; p.o.,30 mg/kg
same,inhibition of control specific binding,adenosine A3 receptor; 10 μM DSM421,40%
same,inhibition of control specific binding,adenosine A3 receptor; 100 μM (36 μg/mL) DSM421,91%
same,agonist effect (percent of control agonist response),"[4]; 100 μM DSM421, agonist mode",26%
same,antagonist effect,"[4]; 100 μM DSM421, antagonist mode",no effect
same,"ACTH plasma level, effect of dose",Male Sprague Dawley rats [5],no overall effect for dose
same,"aldosterone serum level, effect of dose",Male Sprague Dawley rats [5],no overall effect for dose
same,"corticosterone serum level, effect of dose",Male Sprague Dawley rats [5],overall effect for dose
same,Irwin test effects,rats [6],no effects were observed
same,clinical signs,"Male Sprague Dawley rats [7]; whole-body chambers, 200, 500, 750 mg/kg p.o., 5-hour post-dosing period",no DSM421-related clinical signs
same,increase in tidal volume,"Male Sprague Dawley rats [7]; whole-body, 200 mg/kg p.o.",approximately 5%
same,increase in tidal volume,"Male Sprague Dawley rats [7]; whole-body, 500 mg/kg p.o.",~6%
same,mean minute volume increase,Male Sprague Dawley rats [7]; [8],approximately 28%
same,mean respiratory rate increase compared to vehicle control,Male Sprague Dawley rats [7]; [8],22–23%
